Values joined by “and” are separate entries in the source; they are usually repeats but may differ in a detail not shown here. Identical values can stand only once.
Tests used:
Assay type in all cases: functional
[1] = system: Rattus norvegicus; test: Percent reduction was determined by using the ratio of mean of treated animal to that of control animal at a dose of 5 mg/kg
[2] = system: Rattus norvegicus; test: Percent reduction was determined by using the ratio of mean of treated animal to that of control animal at a dose of 1 mg/kg
[3] = system: Rattus norvegicus; test: Weight loss of rat over the 6-h experimental period when a dose of 25 mg/kg (57.8 administered
[4] = system: Rattus norvegicus; test: Weight loss of rat over the 6-h experimental period when a dose of 1 mg/kg (2.3 uMl) was administered
[5] = system: Rattus norvegicus; test: Weight loss of rat over the 6-h experimental period when a dose of 0 mg/kg (0 administered
[6] = system: Rattus norvegicus; test: Stool output of rat over the 6-h collection period when a dose of 1 mg/kg (2.3 administered
[7] = system: Rattus norvegicus; test: Stool output of rat over the 6-h collection period when a dose of 5 mg/kg (11.6 administered
[8] = system: Rattus norvegicus; test: Stool output of rat over the 6-h collection period when a dose of 0 mg/kg (0 administered
[9] = system: Rattus norvegicus; test: Percent reduction was determined by using the ratio of mean of treated animal to that of control animal at a dose of 25 mg/kg
[10] = system: Rattus norvegicus; test: Stool output of rat over the 6-h collection period when a dose of 25 mg/kg (57.8 administered
[11] = system: Rattus norvegicus; test: Weight loss of rat over the 6-h experimental period when a dose of 5 mg/kg (11.6 administered
[12] = system: Rattus norvegicus; test: Stool output of rat over the 6-h collection period when a dose of 1.22 mg/kg (2.3 administered
[13] = system: Rattus norvegicus; test: Weight loss of rat over the 6-h experimental period when a dose of 1.22 mg/kg (2.3 administered
[14] = system: Rattus norvegicus; test: Weight loss of rat over the 6-h experimental period when a dose of 6.11 mg/kg (11.6 administered
[15] = system: Rattus norvegicus; test: Weight loss of rat over the 6-h experimental period when a dose of 30.4 mg/kg (57.8 administered
[16] = system: Rattus norvegicus; test: Stool output of rat over the 6-h collection period when a dose of 30.4 mg/kg (57.8 administered
[17] = system: Rattus norvegicus; test: Stool output of rat over the 6-h collection period when a dose of 6.11 mg/kg (11.6 administered
[18] = system: Rattus norvegicus; test: Stool output of rat over the 6-h collection period when a dose of 5.3 mg/kg (11.6 administered
[19] = system: Rattus norvegicus; test: Weight loss of rat over the 6-h experimental period when a dose of 1.1 mg/kg (2.3 administered
[20] = system: Rattus norvegicus; test: Stool output of rat over the 6-h collection period when a dose of 1.1 mg/kg (2.3 administered
[21] = system: Rattus norvegicus; test: Weight loss of rat over the 6-h experimental period when a dose of 5.3 mg/kg (11.6 administered
[22] = system: Rattus norvegicus; test: Stool output of rat over the 6-h collection period when a dose of 2.7 mg/kg (5.8 administered
[23] = system: Rattus norvegicus; test: Weight loss of rat over the 6-h experimental period when a dose of 2.7 mg/kg (5.8 administered
[24] = system: Rattus norvegicus; test: Stool output of rat over the 6-h collection period when a dose of 10.7 mg/kg (23.2 administered
[25] = system: Rattus norvegicus; test: Weight loss of rat over the 6-h experimental period when a dose of 10.7 mg/kg (23.2 administered
[26] = system: Rattus norvegicus; test: Percent reduction was determined by using the ratio of mean of treated animal to that of control animal at a dose of 5.3 mg/kg
[27] = system: Rattus norvegicus; test: Percent reduction was determined by using the ratio of mean of treated animal to that of control animal at a dose of 10.7 mg/kg
[28] = system: Rattus norvegicus; test: Weight loss of rat over the 6-h experimental period when a dose of 15 mg/kg (47.6 administered
[29] = system: Rattus norvegicus; test: Stool output of rat over the 6-h collection period when a dose of 15 mg/kg (47.6 administered
[30] = system: Rattus norvegicus; test: Stool output of rat over the 6-h collection period when a dose of 50 mg/kg (115.6 uM) was given orally; conditions: route oral
[31] = system: Rattus norvegicus; test: Weight loss of rat over the 6-h experimental period when a dose of 12.5 mg/kg (28.9 uM) was given orally; conditions: route oral
[32] = system: Rattus norvegicus; test: Stool output of rat over the 6-h collection period when a dose of 12.5 mg/kg (28.9 uM) was given orally; conditions: route oral
[33] = system: Rattus norvegicus; test: Weight loss of rat over the 6-h experimental period when a dose of 1 mg/kg (2.3 administered
[34] = system: Rattus norvegicus; test: Weight loss of rat over the 6-h experimental period when a dose of 25 mg/kg (57.6 uM) was given orally; conditions: route oral
[35] = system: Rattus norvegicus; test: Percent reduction was determined by using the ratio of mean of treated animal to that of control animal at a dose of 12.5 mg/kg
[36] = system: Rattus norvegicus; test: Stool output of rat over the 6-h collection period when a dose of 2.5 mg/kg (5.8 administered
[37] = system: Rattus norvegicus; test: Weight loss of rat over the 6-h experimental period when a dose of 2.5 mg/kg (5.8 administered
[38] = system: Rattus norvegicus; test: Percent reduction was determined by using the ratio of mean of treated animal to that of control animal at a dose of 2.5 mg/kg
[39] = system: Rattus norvegicus; test: Weight loss of rat over the 6-h experimental period when a dose of 50 mg/kg (115.6 uM) was given orally; conditions: route oral
[40] = The acute toxicity was determined in female CD1 mice after (ip) administration; conditions: Mus musculus
[41] = system: Rattus norvegicus; test: Stool output of rat over the 6-h collection period when a dose of 0 mg/kg (0 uM) was given orally; conditions: route oral
[42] = system: Rattus norvegicus; test: Stool output of rat over the 6-h collection period when a dose of 25 mg/kg (57.6 uM) was given orally; conditions: route oral
[43] = system: Rattus norvegicus; test: Percent reduction was determined by using the ratio of mean of treated animal to that of control animal at a dose of 50 mg/kg
[44] = system: Rattus norvegicus; test: Weight loss of rat over the 6-h experimental period when a dose of 0 mg/kg (0 uM) was given orally; conditions: route oral
[45] = system: Rattus norvegicus; test: Weight loss of rat over the 6-h experimental period when a dose of 47 mg/kg (116.25 uM) was given orally; conditions: route oral
[46] = system: Rattus norvegicus; test: Stool output of rat over the 6-h collection period when a dose of 47 mg/kg (116.25 uM) was given orally; conditions: route oral
[47] = system: Rattus norvegicus; test: Weight loss of rat over the 6-h experimental period when a dose of 23.5 mg/kg (58.13 uM) was given orally; conditions: route oral
[48] = system: Rattus norvegicus; test: Stool output of rat over the 6-h collection period when a dose of 23.5 mg/kg (58.13 uM) was given orally; conditions: route oral
[49] = system: Rattus norvegicus; test: Weight loss of rat over the 6-h experimental period when a dose of 94 mg/kg (232.5 uM) was given orally; conditions: route oral
[50] = system: Rattus norvegicus; test: Weight loss of rat over the 6-h experimental period when a dose of 5.9 mg/kg (11.6 administered
[51] = system: Rattus norvegicus; test: Stool output of rat over the 6-h collection period when a dose of 5.9 mg/kg (11.6 administered
[52] = system: Rattus norvegicus; test: Stool output of rat over the 6-h collection period when a dose of 94 mg/kg (232.5 uM) was given orally; conditions: route oral
[53] = system: Rattus norvegicus; test: Weight loss of rat over the 6-h experimental period when a dose of 4.6 mg/kg (11.6 administered
[54] = system: Rattus norvegicus; test: Stool output of rat over the 6-h collection period when a dose of 4.6 mg/kg (11.6 administered

## CCCNCCCNCCCCNCCCNCCC
[1]
  Reduction: 56% and 55%
[2]
  Reduction: 31% and 37%
[3]
  Weight loss: <4 g
[4]
  Weight loss: <9.1 g
[5]
  Weight loss: 13.1 g
[6]
  Stool output: >3.8 g (350g of rat weight)-1
[7]
  Stool output: <2.7 g (350g of rat weight)-1
[8]
  Stool output: 6 g (350g of rat weight)-1
[9]
  Reduction: 69% and 100%
[10]
  Stool output: <0 g (350g of rat weight)-1
[11]
  Weight loss: <5.7 g

## c1ccc(CNCCCNCCCCNCCCNCc2ccccc2)cc1
[12]
  Stool output: >6.4 g (350g of rat weight)-1
[13]
  Weight loss: >13.5 g
[5]
  Weight loss: 13.3 g
[14]
  Weight loss: >13.1 g
[15]
  Weight loss: >10.4 g
[16]
  Stool output: >5 g (350g of rat weight)-1
[8]
  Stool output: 6.2 g (350g of rat weight)-1
[17]
  Stool output: >6.3 g (350g of rat weight)-1

## CCCCNCCCNCCCCNCCCNCCCC
[18]
  Stool output: >5.5 g (350g of rat weight)-1
[19]
  Weight loss: >10.2 g
[20]
  Stool output: >3.5 g (350g of rat weight)-1
[5]
  Weight loss: 13.6 g
[21]
  Weight loss: >12 g
[8]
  Stool output: 4.6 g (350g of rat weight)-1
[22]
  Stool output: >4.2 g (350g of rat weight)-1
[23]
  Weight loss: >11.2 g

## CC(C)CNCCCNCCCCNCCCNCC(C)C
[24]
  Stool output: >1.6 g (350g of rat weight)-1
[18]
  Stool output: >5.1 g (350g of rat weight)-1
[25]
  Weight loss: <5 g
[26]
  Reduction: 39%
[5]
  Weight loss: 18.2 g
[21]
  Weight loss: <11.1 g
[27]
  Reduction: 78%
[8]
  Stool output: 7.2 g (350g of rat weight)-1

## c1cc(NCCCCNc2ccncc2)ccn1
[28]
  Weight loss: >14.4 g
[5]
  Weight loss: 13.3 g
[8]
  Stool output: 5.6 g (350g of rat weight)-1
[29]
  Stool output: >6.9 g (350g of rat weight)-1

## CC(C)NCCCNCCCCNCCCNC(C)C
[1]
  Reduction: 63% and 87%
[30]
  Stool output: <0 g (350g of rat weight)-1
[31]
  Weight loss: <8.7 g
[32]
  Stool output: <3.6 g (350g of rat weight)-1
[2]
  Reduction: 42% and 57%
[33]
  Weight loss: <6.9 g
[34]
  Weight loss: <3.6 g
[35]
  Reduction: 49% and 50%
[36]
  Stool output: <0 g (350g of rat weight)-1
[37]
  Weight loss: <4.2 g
[38]
  Reduction: 64% and 100%
[39]
  Weight loss: <3.2 g
[5]
  Weight loss: 11.8 g
[6]
  Stool output: <2.9 g (350g of rat weight)-1
[40]
  LD50: 125 mg/kg
[7]
  Stool output: <0.9 g (350g of rat weight)-1
[41]
  Stool output: 7.2 g (350g of rat weight)-1
[8]
  Stool output: 6.8 g (350g of rat weight)-1
[9]
  Reduction: 79% and 100%
[42]
  Stool output: <0 g (350g of rat weight)-1
[43]
  Reduction: 81% and 100%
[11]
  Weight loss: <4.4 g
[44]
  Weight loss: 17.2 g

## FC(F)(F)CNCCCNCCCCNCCCNCC(F)(F)F
[45]
  Weight loss: <3.8 g
[46]
  Stool output: <0.6 g (350g of rat weight)-1
[47]
  Weight loss: <6.2 g
[5]
  Weight loss: 18.2 g
[48]
  Stool output: <1.9 g (350g of rat weight)-1
[49]
  Weight loss: <2.8 g
[50]
  Weight loss: >17.2 g
[41]
  Stool output: 7.2 g (350g of rat weight)-1
[8]
  Stool output: 7.2 g (350g of rat weight)-1
[51]
  Stool output: >7.5 g (350g of rat weight)-1
[52]
  Stool output: <0 g (350g of rat weight)-1
[44]
  Weight loss: 15.1 g

## C(CCNC1CCNCC1)CNC1CCNCC1
[53]
  Weight loss: >9.5 g
[5]
  Weight loss: 10 g
[54]
  Stool output: >4.7 g (350g of rat weight)-1
[8]
  Stool output: 4.2 g (350g of rat weight)-1
